Experimental data reported in patent US20250263408A1 (Uniquest Pty Ltd, priority 2022, published 2025).

How the values were obtained:
[1] = tested on: Ba/F3-WT (wild type) cells; test: Ba/F3 Proliferation Assay, Ba/F3-WT (wild type) cells with mIL-3 (Resazurin); format: cell-based; details: Ba/F3-WT cells +mIL-3, 48-hour incubation
[2] = biological target: T1, Ba/F3-Syk cells (Homo sapiens, UniProt P43405); test: Ba/F3 Proliferation Assay, Ba/F3-Syk cells (Resazurin); format: cell-based; details: 48-hour incubation
T1 construct: fused on or other part: Possible but unprinted fusion partner: TEL (ETV6), the usual partner for Ba/F3 lines transformed by Syk; Nothing on a partner is printed

Row | SMILES | EC50 ([1]; Mus musculus, BaF3, 48 h) [nM] | EC50 [2] [nM] | EC50 [1] [nM]
1 | CCc1ccc(-c2cc3ncccc3c(OC[C@@H]3CNCCO3)n2)s1 [Compound 2.36, 7-(5-ethylthiophen-2-yl)-5-{[(2S)-morpholin-2-yl]methoxy}-1,6-naphthyridine] | 2050 | 279 | –
2 | CC(C)n1cc(-c2cc3ncccc3c(OC[C@@H]3CNCC4(CCC4)O3)n2)cn1 [Compound 2.56, 5-{[(6S)-5-oxa-8-azaspiro[3.5]nonan-6-yl]methoxy}-7-[1-(propan-2-yl)-1H-pyrazol-4-yl]-1,6-naphthyridine] | 1460 | 32.9 | –
3 | C[C@@H]1O[C@H](COc2nc(-c3cnn(C(C)(C)C)c3)cc3ncccc23)CN[C@@H]1C (relative stereo) [Compound 2.81, 7-(1-tert-butyl-1H-pyrazol-4-yl)-5-{[rel-(2S,5R,6S)-5,6-dimethylmorpholin-2-yl]methoxy}-1,6-naphthyridine] | 2070 | 73.2 | –
4 | CC(C)(C)n1cc(-c2cc(OC[C@@H]3CNCCO3)c3cccnc3c2)cn1 [Compound 1, 7-(1-tert-butyl-1H-pyrazol-4-yl)-5-{[(2S)-morpholin-2-yl]methoxy}quinoline] | 4670 | 44.2 | –
5 | Cn1cc(-c2cc3ncccc3c(OC[C@@H]3CNCCCO3)n2)cn1 [Compound 2.50, 7-(1-methyl-1H-pyrazol-4-yl)-5-{[(2S)-1,4-oxazepan-2-yl]methoxy}-1,6-naphthyridine] | 6180 | 151 | –
6 | CC(C)(C)n1ccc(-c2cc3ncccc3c(OC[C@@H]3CNCC4(CC4)O3)n2)c1 [Compound 2.61, 7-(1-tert-butyl-1H-pyrrol-3-yl)-5-{[(5S)-4-oxa-7-azaspiro[2.5]octan-5-yl]methoxy}-1,6-naphthyridine] | 2610 | 9.7 | –
7 | CC(C)n1cc(-c2cc3ncccc3c(O[C@H](C)[C@@H]3CNCC(C)(C)O3)n2)cn1 [Compound 2.84, 5-[(1R)-1-[(2S)-6,6-dimethylmorpholin-2-yl]ethoxy]-7-[1-(propan-2-yl)-1H-pyrazol-4-yl]-1,6-naphthyridine] | 2210 | 22.3 | –
8 | CC1(C)CNC[C@@H](COc2cc(-c3cnn(C(F)F)c3)cc3ncccc23)O1 [Compound 3.11, 7-[1-(difluoromethyl)-1H-pyrazol-4-yl]-5-{[(2S)-6,6-dimethylmorpholin-2-yl]methoxy}quinoline] | 2140 | 163 | –
9 | CC1(C)CNC[C@H](COc2nc(-c3cnn(C(C)(C)C)c3)cc3ncccc23)O1 [Compound 2.82, 7-(1-tert-butyl-1H-pyrazol-4-yl)-5-{[(2R)-6,6-dimethylmorpholin-2-yl]methoxy}-1,6-naphthyridine] | 2270 | 127 | –
10 | CC(C)(C)n1cc(-c2cc3ncccc3c(O[C@@H]3CC[C@@H]4NCCO[C@@H]43)n2)cn1 (relative stereo) [Compound 2.90, 5-[rel-(4aS,7R,7aS)-octahydrocyclopenta[b][1,4]oxazin-7-yloxy]-7-(1-tert-butyl-1H-pyrazol-4-yl)-1,6-naphthyridine] | > 1000 | 54.6 | –
11 | Cn1cc(-c2cc3ncccc3c(OC[C@@H]3CN[C@H]4CCC[C@H]4O3)n2)cn1 [Compound 2.73, 5-{[(2S,4aS,7aR)-octahydrocyclopenta[b][1,4]oxazin-2-yl]methoxy}-7-(1-methyl-1H-pyrazol-4-yl)-1,6-naphthyridine] | 3380 | 32.2 | –
12 | Cn1cccc1-c1cc2ncccc2c(OC[C@@H]2CNCCO2)n1 [Compound 2.38, 7-(1-methyl-1H-pyrrol-2-yl)-5-{[(2S)-morpholin-2-yl]methoxy}-1,6-naphthyridine] | > 10000 | 1450 | –
13 | COCCn1ccc(-c2cc(OC[C@@H]3CNCCO3)c3nccnc3c2)c1 [Compound 8.7] | – | 15.1 | 621
14 | CC(C)n1cc(-c2cc3ncccc3c(OC[C@H]3OCCN[C@H]3C)n2)cn1 [Compound 2.96, 5-{[(2S,3S)-3-methylmorpholin-2-yl]methoxy}-7-[1-(propan-2-yl)-1H-pyrazol-4-yl]-1,6-naphthyridine] | 724 | 20.1 | –
15 | c1cnc2cc(-c3cc4n(c3)CCC4)cc(OC[C@@H]3CNCCO3)c2c1 [Compound 4, 7-(2,3-dihydro-1H-pyrrolizin-6-yl)-5-{[(2S)-morpholin-2-yl]methoxy}quinoline] | 7210 | 87.7 | –
16 | Cn1ccc(-c2cc3ncccc3c(OCC3CNCCCO3)n2)c1 (centres unmarked) [Compound 2.48, 7-(1-methyl-1H-pyrrol-3-yl)-5-[(1,4-oxazepan-2-yl)methoxy]-1,6-naphthyridine] | 4060 | 119 | –
17 | Cn1cc(-c2cc3ncccc3c(OCC3CNCCCO3)n2)cn1 (centres unmarked) [Compound 2.41, 7-(1-methyl-1H-pyrazol-4-yl)-5-[(1,4-oxazepan-2-yl)methoxy]-1,6-naphthyridine] | 2320 | 127 | –
18 | C[C@@H]1CNC[C@@H](COc2nc(-c3ccn(C)c3)cc3ncccc23)O1 [Compound 2.77, 7-(1-methyl-1H-pyrrol-3-yl)-5-{[(2S,6R)-6-methylmorpholin-2-yl]methoxy}-1,6-naphthyridine] | 5320 | 42.7 | –

More lines, main results first:

Row | EC50 ([1]; Mus musculus, BaF3, 48 h) [nM] | EC50 [2] [nM] | SMILES | EC50 [1] [nM]
19 | 2340 | 20.3 | CC1(C)CNC[C@@H](COc2nc(-c3ccn(CC4CC4)c3)cc3ncccc23)O1 [Compound 6.15, 7-[1-(cyclopropylmethyl)-1H-pyrrol-3-yl]-5-{[(2S)-6,6-dimethylmorpholin-2-yl]methoxy}-1,6-naphthyridine] | –
20 | > 1000 | 32.9 | c1cnc2cc(-c3cnn([C@H]4CCOC4)c3)nc(OC[C@@H]3CNCCO3)c2c1 [Compound 6.44, 5-{[(2S)-morpholin-2-yl]methoxy}-7-{1-[(3S)-oxolan-3-yl]-1H-pyrazol-4-yl}-1,6-naphthyridine] | –
21 | 1870 | 36.3 | CC(C)n1ccc(-c2cc(O[C@H](C)[C@@H]3CNCCO3)c3cccnc3c2)c1 [Compound 7.19, 5-[(1R)-1-[(2S)-morpholin-2-yl]ethoxy]-7-[1-(propan-2-yl)-1H-pyrrol-3-yl]quinoline] | –
22 | 2650 | 74.8 | c1cnc2cc(-c3ccn(CC4CC4)c3)nc(OC[C@@H]3CNCCO3)c2c1 [Compound 6.4, 7-[1-(cyclopropylmethyl)-1H-pyrrol-3-yl]-5-{[(2S)-morpholin-2-yl]methoxy}-1,6-naphthyridine] | –
23 | 972 | 25.9 | CC1(C)CNC[C@@H](COc2nc(-c3cnn(CC4CC(F)(F)C4)c3)cc3ncccc23)O1 [Compound 6.38, 7-{1-[(3,3-difluorocyclobutyl)methyl]-1H-pyrazol-4-yl}-5-{[(2S)-6,6-dimethylmorpholin-2-yl]methoxy}-1,6-naphthyridine] | –
24 | 358 | 8.9 | C[C@@H](Oc1cc(-c2ccn(CC(F)F)c2)cc2nccnc12)[C@@H]1CNCCO1 [Compound 8.15, 7-[1-(2,2-difluoroethyl)-1H-pyrrol-3-yl]-5-[(1R)-1-[(2S)-morpholin-2-yl]ethoxy]quinoxaline] | –
25 | > 10000 | 1340 | C[C@H](Oc1cc(-c2cnn(C(C)(C)C)c2)cc2ncccc12)[C@@H]1CNCCO1 [Compound 14.1, 7-(1-tert-butyl-1H-pyrazol-4-yl)-5-[(1S)-1-[(2S)-morpholin-2-yl]ethoxy]quinoline] | –
26 | 2300 | 23.6 | CC[C@H](C)n1cc(-c2cc3ncccc3c(OC[C@@H]3CNCC(C)(C)O3)n2)cn1 [Compound 6.35, 7-{1-[(2S)-butan-2-yl]-1H-pyrazol-4-yl}-5-{[(2S)-6,6-dimethylmorpholin-2-yl]methoxy}-1,6-naphthyridine] | –
27 | 1920 | 176 | FC(F)c1cc(-c2cc(OC[C@@H]3CNCCO3)c3cccnc3c2)cs1 [Compound 14.3, 7-[5-(difluoromethyl)thiophen-3-yl]-5-{[(2S)-morpholin-2-yl]methoxy}quinoline] | –
28 | 1920 | 81.9 | FC(F)Cn1cc(-c2cc3ncccc3c(OC[C@@H]3CNCCO3)n2)cn1 [Compound 6.6, 7-[1-(2,2-difluoroethyl)-1H-pyrazol-4-yl]-5-{[(2S)-morpholin-2-yl]methoxy}-1,6-naphthyridine] | –
29 | 989 | 9.2 | C[C@@H]1CNC[C@@H](COc2cc(-c3cnn(C(C)(C)C)c3)cc3nccnc23)O1 [Compound 12.7, 7-(1-tert-butyl-1H-pyrazol-4-yl)-5-{[(2S,6R)-6-methylmorpholin-2-yl]methoxy}quinoxaline] | –
30 | 435 | 8.3 | CCn1ccc(-c2cc(O[C@H](C)[C@@H]3CNCCO3)c3nccnc3c2)c1 [Compound 8.14, 7-(1-ethyl-1H-pyrrol-3-yl)-5-[(1R)-1-[(2S)-morpholin-2-yl]ethoxy]quinoxaline] | –
31 | 2820 | 16.4 | CC(C)n1ccc(-c2cc3ncccc3c(OC[C@@H]3CNCCCO3)n2)c1 [Compound 6.24, 5-{[(2S)-1,4-oxazepan-2-yl]methoxy}-7-[1-(propan-2-yl)-1H-pyrrol-3-yl]-1,6-naphthyridine] | –
32 | 2780 | 47.9 | CC(C)n1ccc(-c2cc(OC[C@@H]3CNCCO3)c3cccnc3c2)c1 [Compound 7.1, 5-{[(2S)-morpholin-2-yl]methoxy}-7-[1-(propan-2-yl)-1H-pyrrol-3-yl]quinoline] | –
33 | 1850 | 29.3 | COCCn1ccc(-c2cc(OC[C@@H]3CNCC4(CC4)O3)c3nccnc3c2)c1 [Compound 8.1, 7-[1-(2-methoxyethyl)-1H-pyrrol-3-yl]-5-{[(5S)-4-oxa-7-azaspiro[2.5]octan-5-yl]methoxy}quinoxaline] | –
34 | 1790 | 33.4 | Cn1ccc(-c2cc(OC[C@@H]3CNCC4(CCC4)O3)c3cccnc3c2)c1 [Compound 11.6, 7-(1-methyl-1H-pyrrol-3-yl)-5-{[(6S)-5-oxa-8-azaspiro[3.5]nonan-6-yl]methoxy}quinoline] | –
